In one data set the test system is Proteus mirabilis 18. In words: Minimal inhibitory concentration (MIC), two-fold agar-plate dilution method, Proteus mirabilis 18. It counts as cell-based. To be noted: HI-agar, 37° C., 20 hours, 10^8 viable cells per ml. The method, then: (§1) In vitro antibacterial activity was determined by the two-fold agar-plate dilution method as described below.
(§2) One loopful of an overnight culture of each test strain in Trypticase-soy broth (10^8 viable cells per ml) was streaked on heart infusion agar (HI-agar) containing graded concentrations of representative test compound, and the minimal inhibitory concentration (MIC) was expressed in terms of μg/ml after incubation at 37° C. for 20 hours.

The subject of a further data set is Klebsiella pneumoniae 20. In words: Minimal inhibitory concentration (MIC), two-fold agar-plate dilution method, Klebsiella pneumoniae 20. It counts as cell-based. The following applies: HI-agar, 37° C., 20 hours, 10^8 viable cells per ml. How it is done:
as §1, §2

The nature of data set [1]: Urinary excretion in rats after oral administration. The class given is in vivo. To be noted: rat, 100 mg/kg, urine 0-24 hours, bioassay, read-out: Urinary recovery in 24 hours.
Experimental: Urine of rats was collected with a urine collector at 0 to 6, and 6 to 24 hours after oral administration of 100 mg/kg of the test antibiotic. The antibiotic levels in the urine samples were bioassayed with the standard solution prepared with M/15 phosphate buffer pH 7.0) and the urinary recovery in 24 hours was calculated.
A short description of a further data set: in vivo. The following applies: rat, po, 100 mg/kg.
The test system of a further data set is Proteus vulgaris 2. Briefly: Minimal inhibitory concentration (MIC), two-fold agar-plate dilution method, Proteus vulgaris 2. It counts as cell-based. The following applies: HI-agar, 37° C., 20 hours, 10^8 viable cells per ml. How it is done: as §1, §2

Structures are written as SMILES. Values after ≈ are worked out from the molar mass of the structure shown.

Experimental for in vivo: Rats anesthetized with pentobarbital were fixed in supine position, and a polyethylene cannula was inserted into the bile duct. Bile samples were collected at 0 to 3, 3 to 6, and 6 to 24 hours after oral administration of 100 mg/kg of the test antibiotic. The antibiotic levels in the bile samples were bioassayed with the standard solution prepared with M/15 phosphate buffer (pH 7.0) and the biliary recovery in 24 hours were calculated.

One may read the MIC as the lowest concentration that inhibits growth of the organism. Take `C#CC1=C(C(=O)O)N2C(=O)C(NC(=O)/C(=N\OCC(=O)O)c3csc(N)n3)C2SC1` (stereo not drawn) [A, 7-[2-Carboxymethoxyimino-2-(2-aminothiazol-4-yl)-acetamido]-3-ethynyl-3-cephem-4-carboxylic acid (syn isomer)]: the MIC came to 0.05 µg/mL (≈ 0.111 µM) with Proteus mirabilis 18, 0.1 µg/mL (≈ 0.222 µM) in the data set with Klebsiella pneumoniae 20 and 0.025 µg/mL (≈ 0.0554 µM) against Proteus vulgaris 2. For the same compound, the results for the dose excreted at 24 h (in data set [1]; in the data set “in vivo”) were 20% and 7.46%, respectively.
On to `CO/N=C(\C(=O)NC1C(=O)N2C(C(=O)O)=C(C=C(Cl)Cl)CSC12)c1csc(N)n1` (stereo not drawn) [B, 7-[2-Methoxyimino-2-(2-aminothiazol-4-yl)acetamido]-3-(2,2-dichlorovinyl)-3-cephem-4-carboxylic acid (syn isomer)], for which the MIC against Proteus mirabilis 18 amounted to 0.05 µg/mL (≈ 0.105 µM); in the data set with Klebsiella pneumoniae 20, 0.025 µg/mL (≈ 0.0523 µM); against Proteus vulgaris 2, 0.025 µg/mL (≈ 0.0523 µM).

The record behind these values is patent publication US4609730A, “7-[substituted imino-2-(2-aminothiazol-4-yl)-acetamido]-3(2,2-dihalovinyl or ethynyl)-3-cephem-4-carboxylic acid (syn isomers), having antimicrobial activities” (Fujisawa Pharmaceutical Co., Ltd., priority 1982, dated 1986).
